Experiments:
[1] = test system: antigen-specific CD8^+ CTLs; test: Tetramer assay, pulmonary versus subcutaneous administration (Test Example 14); format: in vivo, mouse; details: Day 14
Protocol: (§1) The tetramer assay was carried out as follows. Lymphocytes were recovered from the regional lymph nodes, were stained with fluorescently labeled antibodies against CD44 and CD8 and a fluorescently labeled tetramer recognizing the SL8 peptide presented on H-2K^b, then were analyzed using a flow cytometer.
In this study, CD8^+ cytotoxic T cells inducibility by pulmonary administration and that by subcutaneous administration were compared by using SL8-FL4. 40 μL of physiological saline containing 50 μg of SL8-FL4 in terms of SL8 amount and 10 μg of CpG oligodeoxynucleotide (K3 type, product name “K3 Et-Free”, product number “CN-65003” manufactured by GeneDesign Inc.) was pulmonarily or subcutaneously administered to 7-week old C57BL/6 mice on Day 0 and Day 7, regional lymph nodes and the spleen were collected on Day 14 and a tetramer assay was performed in the same manner as Test Example 8. In addition, a test was also carried out in the case where only physiological saline was subcutaneously administered in the same manner (control). Meanwhile, in these tests, five mice in each group were used.

[2] = test system: antigen-specific CD8^+ CTLs; test: Tetramer assay after pulmonary administration (Test Example 13); format: in vivo, mouse; details: pulmonary administration Day 0 and Day 7 with 10 μg CpG oligodeoxynucleotide, Day 14
Protocol: as §1
40 μL of physiological saline containing 50 μg of SL8-FL4 in terms of SL8 amount and 10 μg of CpG oligodeoxynucleotide (K3 type, product name “K3 Et-Free”, product number “CN-65003” manufactured by GeneDesign Inc.) was pulmonarily administrated to 7-week old C57BL/6 mice on Day 0 and Day 7, regional lymph nodes, lung tissues and the spleen were collected on Day 14 and a tetramer assay was performed in the same manner as Test Example 8. In addition, similar tests were conducted with regard to the case where 40 μL of physiological saline containing 50 μg SL8 alone was pulmonarily administered, the case where 50 μL of physiological saline containing 50 μg SL8 and 10 μg of CpG oligodeoxynucleotide was pulmonarily administered, and the case where only physiological saline was pulmonarily administered (control). Meanwhile, in these tests, five mice in each group were used.

[3] = test system: antigen-specific CD8^+ CTLs; test: Tetramer assay on regional lymph nodes, CD8+ CTL inducibility (Test Example 8); format: in vivo, mouse; details: co-administered with CpG oligodeoxynucleotide, 50 μg in terms of SL8 subcutaneously into the ears Day 0, lymph nodes Day 7
Protocol: A fusion peptide (SL8-FL4) was prepared by linking the N-terminus of the peptide consisting of the amino acid sequence of FL4 to the C-terminus of SL8 (SIINFEKL; SEQ ID NO: 40) which is an MHC class I epitope peptide in chicken ovalbumin (OVA). Specifically, the amino acid sequence of the fusion peptide is [Amino acid sequence of SL8 (SIINFEKL; SEQ ID NO: 40)]-[VSYKAIR; SEQ ID NO: 1]. The production method of the fusion peptide was the same as that of PspA-FL4 except that a DNA molecule encoding SL8 was used. In addition, each of peptide-fusion bodies (SL8-F8 and SL8-FL4Scr) in which the peptide was fused with SL8 was prepared using each of FL8 and the scramble peptide of FL4 (FL4Scr, amino acid sequence: YRSIVKA, SEQ ID NO: 41) in the same manner. […]
as §1

EG7 cells = test: Tumor size in mice transplanted with EG7 cells (Test Example 9); format: in vivo, mouse; details: EG7 tumor bearing C57BL/6 mice
Protocol: In this test, whether the regression effect of cancer was observed by SL8-specific CD8^+ CTLs induced by SL8-FL4 was evaluated. In this test, EG7 cells (cancer cells expressing OVA protein in EL4 cells derived from thymoma of C57BL/6 mouse) were used as cancer cells. Specific test methods are as follows.
1 (10^6 EG7 cells were transplanted into the abdomen of 7-week old C57BL/6 mice to prepare tumor bearing mice. 50 μL of physiological saline containing 50 μg of SL8-FL4 in terms of SL8 amount and 50 μg of CpG oligodeoxynucleotide (K3 type, product name “K3 Et-Free”, product number “CN-65003” manufactured by GeneDesign Inc.) was administered subcutaneously into the ears of mice after EG7 cells were transplanted and the tumor diameter reached about 5 mm (about 5 days after transplantation). Thereafter, tumor size was measured over time while breeding the mice. In addition, similar tests were carried out with regard to the case where 50 μL of physiological saline containing 50 μg SL8 and 50 μg of CpG oligodeoxynucleotide was administered, and the case where only physiological saline was administered (control). Meanwhile, in these tests, five mice in each group were used.

[4] = test system: antigen-specific CD8^+ CTLs; test: IFN-γ production by immune cells of regional lymph nodes, Kras G12D peptide (Test Example 10); format: in vivo, mouse; details: 50 μg as G12D-derived peptide with 10 μg CpG oligodeoxynucleotide, subcutaneously into the ears Day 0, lymph node cells Day 7, cultured 24 hours
Protocol: A fusion peptide (G12D-FL4) was prepared by linking the N-terminus of the peptide consisting of the amino acid sequence of FL4 to the C-terminus of a partial peptide of Kras containing G12D mutation (G12D-derived peptide; LVVVGADGV (SEQ ID NO: 42); the 6th to 14th amino acid sequence from the N-terminal side of Kras containing G12D mutation). Specifically, the amino acid sequence of the fusion peptide is [Partial sequence of Kras containing G12D mutation (LVVVGADGV; SEQ ID NO: 42)]-[VSYKAIR; SEQ ID NO: 1]. The production method of the fusion peptide was the same as that of PspA-FL4 except that a DNA molecule encoding the G12D-derived peptide was used.
50 μL of physiological saline containing 50 μg of G12D-FL4 in terms of the G12D-derived peptide amount and 10 μg of CpG oligodeoxynucleotide (K3 type, product name “K3 Et-Free”, product number “CN-65003” manufactured by GeneDesign Inc.) was administered subcutaneously into the ears of 7-week old C57BL/6 mice on Day 0, regional lymph nodes were collected on Day 7 and immune cells were recovered. […]

Neuropilin-1 = Neuropilin-1 (Homo sapiens, UniProt O14786); details: reported so far; cited from earlier work
Chain of Neuropilin-1 (O14786 22-923, species assumed): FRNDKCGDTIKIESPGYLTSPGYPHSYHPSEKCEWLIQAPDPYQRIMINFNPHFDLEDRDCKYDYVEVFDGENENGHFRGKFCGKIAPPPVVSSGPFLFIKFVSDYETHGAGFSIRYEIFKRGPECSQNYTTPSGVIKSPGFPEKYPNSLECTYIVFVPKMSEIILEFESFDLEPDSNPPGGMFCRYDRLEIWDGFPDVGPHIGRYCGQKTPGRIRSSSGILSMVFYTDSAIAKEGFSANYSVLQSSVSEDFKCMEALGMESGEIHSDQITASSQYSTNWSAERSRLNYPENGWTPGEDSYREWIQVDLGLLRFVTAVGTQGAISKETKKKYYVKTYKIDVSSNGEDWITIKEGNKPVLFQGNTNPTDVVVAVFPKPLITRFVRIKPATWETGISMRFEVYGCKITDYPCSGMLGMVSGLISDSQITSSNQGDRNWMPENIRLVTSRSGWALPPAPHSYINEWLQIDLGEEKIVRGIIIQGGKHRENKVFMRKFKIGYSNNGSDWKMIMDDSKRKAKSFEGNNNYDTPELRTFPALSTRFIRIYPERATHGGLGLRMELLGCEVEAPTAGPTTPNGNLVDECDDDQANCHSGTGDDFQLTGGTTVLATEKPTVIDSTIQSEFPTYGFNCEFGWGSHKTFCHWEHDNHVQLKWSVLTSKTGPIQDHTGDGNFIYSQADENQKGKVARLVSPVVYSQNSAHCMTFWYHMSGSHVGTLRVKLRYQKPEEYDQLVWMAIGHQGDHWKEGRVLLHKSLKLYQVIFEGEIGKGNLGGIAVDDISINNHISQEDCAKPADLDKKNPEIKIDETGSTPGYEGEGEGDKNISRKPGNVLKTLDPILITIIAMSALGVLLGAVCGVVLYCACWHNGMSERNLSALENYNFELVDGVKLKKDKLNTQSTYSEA

For “[Amino acid sequence of SL8 (SIINFEKL; SEQ ID NO: 40)]-[VSYKAIR; SEQ ID NO: 1] (SIINFEKLVSYKAIR; SL8 C-terminus; Amino acid sequence of motif sequence) [SL8-FL4, fusion peptide of SL8 and FL4]”, the “induction of antigen-specific CD8+ CTLs in regional lymph nodes in the lungs” value ([1]; pulmonary administration Day 0 and Day 7 with 10 μg CpG oligodeoxynucleotide) was “strong induction”, the “induction of antigen-specific CD8+ CTLs in the spleen” value ([1]; subcutaneous administration Day 0 and Day 7 with 10 μg CpG oligodeoxynucleotide) was “Strong induction” and the “induction of antigen-specific CD8+ CTLs in lung tissues” value [2] was “strongly induced”. The “induction of antigen-specific CD8+ CTLs in regional lymph nodes in the lungs” value [2] was “strongly induced”, the “induction of antigen-specific CD8+ CTLs in the spleen” value [2] was “strongly induced” and the “induction of antigen-specific CD8+ CTLs (tetramer assay, regional lymph nodes)” value [3] was “strong induction”. For the same substance, the tumor regression effects (EG7 cells; 50 μg as SL8 with 50 μg CpG oligodeoxynucleotide subcutaneously into the ears, compared with physiological saline) was “very strong tumor regression effects” and the “cure of tumor bearing mice” value (EG7 cells; co-administered with CpG oligodeoxynucleotide) was “completely cured mice were observed”.
With “LVVVGADGV [G12D-derived peptide, partial peptide of Kras containing G12D mutation, reference compound]” the “induction of antigen-specific CD8+ CTLs (IFN-γ production ability)” value [4] was “no induction”.
For “[Partial sequence of Kras containing G12D mutation (LVVVGADGV; SEQ ID NO: 42)]-[VSYKAIR; SEQ ID NO: 1] (LVVVGADGVVSYKAIR; G12D-derived peptide; Amino acid sequence of motif sequence) [G12D-FL4, fusion peptide of G12D-derived peptide and FL4]”, the “induction of antigen-specific CD8+ CTLs (IFN-γ production ability)” value [4] was “very strong induction”.
In the case of RPARPAR (positive control peptide), the “binding to Neuropilin-1” value (Neuropilin-1) is given as “bind to Neuropilin-1”.

Source: patent US11186618B2, “Dendritic-cell-targeted peptide, fusion peptide utilizing said peptide, and vaccine utilizing said fusion peptide” (The Research Foundation for Microbial Diseases of Osaka …, priority 2016, dated 2021)
